Measurements taken from DBAASP.
In brackets after ≈: the same amount, converted by molar mass.

Experiments:
Assay in all cases: ≥ marks a high value that may be exact or a test limit, other limits are often not marked, values filed in µg/mL are converted to µM
Bacillus subtilis 168 = system: Bacillus subtilis 168
[1] = system: Candida albicans F7-39/IDE99
Escherichia coli B = system: Escherichia coli B
[2] = system: Micrococcus luteus CCM 144
[3] = system: Pseudomonas aeruginosa ATCC 27853
Pseudomonas aeruginosa = system: Pseudomonas aeruginosa
Staphylococcus aureus 1 = system: Staphylococcus aureus 1
[4] = system: Staphylococcus aureus ATCC 43300
Staphylococcus aureus = system: Staphylococcus aureus
[5] = system: Staphylococcus epidermidis
Acinetobacter baumannii = system: Acinetobacter baumannii
[6] = system: Escherichia coli ATCC 25922
Escherichia coli = system: Escherichia coli
[7] = system: Pseudomonas aeruginosa PAO1
[8] = system: Salmonella enterica serovar Typhimurium
[9] = system: Staphylococcus aureus ATCC 25923
[10] = system: Candida albicans ATCC 10231
Escherichia coli D31 = system: Escherichia coli D31
[11] = system: Pseudomonas aeruginosa ATCC 15442
[12] = system: Streptococcus mutans ATCC 25175

MIC (Bacillus subtilis 168) | MIC [1] | MIC (Escherichia coli B) | MIC [2] | MIC [3] | MIC (Pseudomonas aeruginosa) | MIC (Staphylococcus aureus 1) | MIC [4] | MIC (Staphylococcus aureus) | MIC [5] | MIC (Acinetobacter baumannii) | MIC [6] | MIC (Escherichia coli) | MIC [7] | MIC [8] | MIC [9] | MIC [10] | MIC (Escherichia coli D31) | MIC [11] | MIC [12] | Structure (SMILES)
7 µM (≈ 12.8 µg/mL) | 16 µM (≈ 29.2 µg/mL) | 1.6 µM (≈ 2.92 µg/mL) | 3 µM (≈ 5.48 µg/mL) | 6.3 µM (≈ 11.5 µg/mL) | 21 µM (≈ 38.3 µg/mL) | 4.6 µM (≈ 8.4 µg/mL) | 20 µM (≈ 36.5 µg/mL) | 5.3 µM (≈ 9.67 µg/mL) | 1.5 µM (≈ 2.74 µg/mL) |  |  |  |  |  |  |  |  |  |  | CC[C@H](C)[C@H](NC(=O)CN)C(=O)N[C@@H](Cc1c[nH]c2ccccc12)C(=O)N[C@@H](CO)C(=O)N[C@@H](CO)C(=O)N[C@@H](CC(C)C)C(=O)N[C@@H](CC(C)C)C(=O)N[C@@H](CCCCN)C(=O)N[C@@H](CCCCN)C(=O)N[C@@H](CC(C)C)C(=O)N[C@@H](CCCCN)C(=O)N[C@@H](CCCCN)C(=O)N[C@H](C(=O)N[C@H](C(=O)N[C@@H](C)C(=O)N[C@@H](CCCCN)C(N)=O)[C@@H](C)CC)[C@@H](C)CC [GIWSSLLKKLKKIIAK]
 |  |  |  |  | 10.8 µM (≈ 16 µg/mL) |  |  | 7.63 µM (≈ 11.3 µg/mL) |  | 21.6 µM (≈ 32 µg/mL) | 10.8 µM (≈ 16 µg/mL) | 30.5 µM (≈ 45.3 µg/mL) | 10.8 µM (≈ 16 µg/mL) | 5.39 µM (≈ 8 µg/mL) | 10.8 µM (≈ 16 µg/mL) |  |  |  |  | CC[C@H](C)[C@H](NC(=O)[C@H](CCCN=C(N)N)NC(=O)[C@H](CC(C)C)NC(=O)[C@H](CCC(N)=O)NC(=O)[C@@H](N)C(C)C)C(=O)N[C@@H](CCCN=C(N)N)C(=O)N[C@H](C(=O)N[C@@H](CS)C(=O)N[C@H](C(=O)N[C@H](C(=O)N[C@@H](CCCN=C(N)N)C(=O)N[C@@H](CCCCN)C(=O)O)[C@@H](C)CC)C(C)C)C(C)C [VQLRIRVCVIRK]
 |  |  |  |  |  |  |  |  |  |  |  |  |  |  | 45.3 µM (≈ 107 µg/mL) | > 100 µM | ≥ 100 µM | ≥ 100 µM | ≥ 100 µM | CC(C)C[C@H](NC(=O)CN)C(=O)N[C@H](C(=O)N[C@H](C(=O)N[C@@H](CC(=O)O)C(=O)N[C@H](C(=O)N[C@@H](CC(C)C)C(=O)N[C@@H](CCCCN)C(=O)NCC(=O)N[C@@H](C)C(=O)N[C@@H](C)C(=O)N[C@@H](CCCCN)C(=O)N[C@H](C(=O)N[C@H](C(=O)N[C@@H](C)C(=O)N[C@@H](C)C(=O)N[C@@H](CCC(=O)O)C(=O)N[C@@H](CC(C)C)C(=O)N[C@@H](CC(C)C)C(=O)N[C@@H](CCCN=C(N)N)C(=O)N[C@@H](CCCCN)C(=O)N[C@@H](C)C(=O)N[C@@H](Cc1cnc[nH]1)C(N)=O)C(C)C)[C@@H](C)O)[C@@H](C)O)[C@@H](C)O)C(C)C [GLVTDTLKGAAKTVAAELLRKAH]
7 µM (≈ 11.9 µg/mL) | 18 µM (≈ 30.6 µg/mL) | 15 µM (≈ 25.5 µg/mL) | 3 µM (≈ 5.09 µg/mL) | 20 µM (≈ 34 µg/mL) | 68 µM (≈ 115 µg/mL) | ≥ 53 µM | 63 µM (≈ 107 µg/mL) | 64 µM (≈ 109 µg/mL) | 13 µM (≈ 22.1 µg/mL) |  |  |  |  |  |  |  |  |  |  | CC[C@H](C)[C@H](NC(=O)CN)C(=O)N[C@@H](CCSC)C(=O)N[C@@H](CO)C(=O)N[C@@H](CO)C(=O)N[C@@H](CC(C)C)C(=O)N[C@@H](CCSC)C(=O)N[C@@H](CCCCN)C(=O)N[C@@H](CCCCN)C(=O)N[C@@H](CC(C)C)C(=O)N[C@@H](C)C(=O)N[C@@H](C)C(=O)N[C@@H](Cc1cnc[nH]1)C(=O)N[C@H](C(=O)N[C@@H](C)C(=O)N[C@@H](CCCCN)C(N)=O)[C@@H](C)CC [GIMSSLMKKLAAHIAK]
7 µM (≈ 12.5 µg/mL) | 7.6 µM (≈ 13.6 µg/mL) | 15 µM (≈ 26.8 µg/mL) | 3 µM (≈ 5.37 µg/mL) | 5.2 µM (≈ 9.3 µg/mL) | 10 µM (≈ 17.9 µg/mL) | 8.6 µM (≈ 15.4 µg/mL) | 33 µM (≈ 59 µg/mL) | 17 µM (≈ 30.4 µg/mL) | 2.9 µM (≈ 5.19 µg/mL) |  |  |  |  |  |  |  |  |  |  | CC[C@H](C)[C@H](NC(=O)CN)C(=O)N[C@@H](CCSC)C(=O)N[C@@H](CO)C(=O)N[C@@H](CO)C(=O)N[C@@H](CC(C)C)C(=O)N[C@@H](CCSC)C(=O)N[C@@H](CCCCN)C(=O)N[C@@H](CCCCN)C(=O)N[C@@H](CC(C)C)C(=O)N[C@@H](C)C(=O)N[C@@H](CCCCN)C(=O)N[C@H](C(=O)N[C@H](C(=O)N[C@@H](CCCCN)C(=O)N[C@@H](CCCCN)C(N)=O)[C@@H](C)CC)[C@@H](C)CC [GIMSSLMKKLAKIIKK]
